We go through five compounds from DBAASP.

Values after ≈ are worked out from the molar mass of the structure shown.

What all share (assay): ≥ marks a high value that may be exact or a test limit, other limits are often not marked, values filed in µg/mL are converted to µM
For test [1], the system named is Staphylococcus aureus Cowan 1.
The test system of test [2] is Staphylococcus capitis 1.
In test [3] the test system is Candida albicans ATCC 10231.
Test [4] concerns Escherichia coli ATCC 25922.
Test [5] deals with Yersinia pseudotuberculosis YPIII.
Test [6] has as its system Bacillus megaterium Bm11.
The subject of test [7] is Pseudomonas aeruginosa ATCC 15692.
The subject of test [8] is Saccharomyces cerevisiae.
Test [9] has as its system Staphylococcus aureus ATCC 25923.
The subject of test [10] is Micrococcus luteus.
The test system of test [11] is Escherichia coli ATCC 11775.
For test [12], the system named is Botrytis cinerea.
The test system of test [13] is Staphylococcus aureus ATCC 12600.

Take `CC[C@H](C)[C@H](NC(=O)CNC(=O)[C@H](CO)NC(=O)[C@H](CC(C)C)NC(=O)[C@@H](NC(=O)[C@H](C)NC(=O)CNC(=O)[C@@H](NC(=O)[C@H](CC(C)C)NC(=O)[C@@H]1CCCN1C(=O)[C@H](CC(C)C)NC(=O)[C@@H](N)Cc1ccccc1)[C@@H](C)CC)C(C)C)C(=O)N[C@@H](CC(C)C)C(N)=O` [FLPLIGAVLSGIL]: the MIC (usually the least concentration at which growth counts as inhibited) in test [1] was not below 40 µM; in [2], not below 40 µM; in test [3], more than 40 µM; in [4] it was more than 40 µM; in test [5] it was not below 40 µM; in test [6], not below 40 µM.
On to `CC[C@H](C)[C@H](NC(=O)[C@H](CC(C)C)NC(=O)[C@H](CCCCN)NC(=O)[C@H](CO)NC(=O)[C@H](C)NC(=O)CNC(=O)[C@H](CCCCN)NC(=O)[C@H](CC(C)C)NC(=O)[C@H](C)NC(=O)[C@H](C)NC(=O)[C@H](CCCCN)NC(=O)[C@H](C)NC(=O)[C@H](CC(C)C)NC(=O)[C@H](CC(C)C)NC(=O)CNC(=O)[C@H](Cc1ccccc1)NC(=O)[C@@H](NC(=O)CN)C(C)C)C(=O)N1CCC[C@H]1C(=O)N[C@@H](Cc1cnc[nH]1)C(=O)N[C@@H](CC(C)C)C(=O)N[C@@H](CC(C)C)C(=O)N1CCC[C@H]1C(=O)N[C@@H](CO)C(=O)N[C@@H](CCCN=C(N)N)C(=O)N[C@@H](CCC(N)=O)C(=O)N[C@@H](CCC(N)=O)C(=O)O` [GVFGLLAKAALKGASKLIPHLLPSRQQ], for which the MIC was found to be 5.66 µM (≈ 15.9 µg/mL) in test [7]; 16 µM (≈ 45 µg/mL) in test [8]; 1 µM (≈ 2.81 µg/mL) in test [9]; 0.5 µM (≈ 1.41 µg/mL) in test [10]; 1 µM (≈ 2.81 µg/mL) in test [4].
As to `CC[C@H](C)[C@H](NC(=O)[C@@H]1CCCN1C(=O)[C@@H]1CCCN1C(=O)[C@@H](NC(=O)[C@H](Cc1cnc[nH]1)NC(=O)[C@@H](N)C(C)C)C(C)C)C(=O)N[C@H]1CSSC[C@@H](C(=O)N[C@@H](CCCN=C(N)N)C(=O)N[C@@H](CCCCN)C(=O)O)NC(=O)[C@H](CCC(=O)O)NC(=O)[C@H](CCCN=C(N)N)NC(=O)[C@H](Cc2cnc[nH]2)NC(=O)[C@H](CO)NC1=O` [VHVPPICSHRECRK], the MIC in test [11] is not below 200 µM; in [3], more than 200 µM; in [12], not below 200 µM; in test [13], not below 200 µM.
For the compound `CC[C@H](C)[C@H](NC(=O)[C@H](C)N)C(=O)N[C@@H](CC(N)=O)C(=O)N1CCC[C@H]1C(=O)N[C@@H](CCCCN)C(=O)N[C@@H](CO)C(=O)N[C@H](C(=O)N[C@@H](CCC(N)=O)C(=O)N[C@@H](CO)C(=O)N[C@@H](CC(C)C)C(=O)N[C@@H](CC(C)C)C(N)=O)C(C)C` [AINPKSVQSLL], the MIC is not below 200 µM in test [11], more than 200 µM in [3], not below 200 µM in test [12] and not below 200 µM in test [13].
In the case of `CC[C@H](C)[C@H](NC(=O)CNC(=O)[C@H](CO)NC(=O)[C@H](CC(C)C)NC(=O)[C@@H](NC(=O)[C@H](CCCN=C(N)N)NC(=O)CNC(=O)[C@H](C)NC(=O)[C@H](CC(C)C)NC(=O)[C@@H]1CCCN1C(=O)[C@H](CC(C)C)NC(=O)[C@@H](N)Cc1ccccc1)C(C)C)C(=O)N[C@@H](CC(C)C)C(N)=O` [FLPLAGRVLSGIL], the MIC is not below 40 µM in test [1]; not below 40 µM in test [2]; 20 µM (≈ 27.1 µg/mL) in test [3]; more than 40 µM in test [4]; not below 40 µM in test [5]; 20 µM (≈ 27.1 µg/mL) in [6].
